Test results from US20150285789A1, “ASSAYS, SYSTEMS, AND METHODS FOR OBTAINING PERSONALIZED ANABOLIC PROFILES” (BOSTON MEDICAL CENTER CORPORATION, priority 2012, published 2015).
Entries after “also recorded” stand apart in the source; their conditions may differ.

Each compound was assayed on MC3T3 cells (assay: TGFβ1 mediated inhibition of osteoblast differentiation, qRT-PCR of Runx2, Osx and Smad 7). Conditions: TGFβ1 added to MC3T3 cells.
Format: cell-based, mouse
Method: MC3T3 cells were treated with media containing 1 ng/mL of TGFβ1 for 24 h and then the media were replaced with BMP-2 or BMP-2 with 100 ng/mL rapamycin. RNA was collected 24 h afterwards and analyzed by qRT-PCR and the ΔΔCT method. […] Shown are representative results (average of duplicates) of at least three independent experiments.
Total RNA was extracted by the TRIzol method as recommended by the manufacturer (Invitrogen). Isolated RNA was cleaned up using the Rneasy Kit (Qiagen) and 500 ng of RNA was reverse-transcribed using the High Capacity cDNA Synthesis Kit (Applied Biosystems #4368813). Taqman expression assays were used for detection. The expression of 18S (Applied Biosystems #4319413E) was used for normalization of gene expression values. Real-time primers Runx2, Sp7 (Osx), Bglap1 (Ocn) and Smad 7 were obtained from Applied Biosystems (Mm00501580_ml, Mm00504574_ml, Mm03413826_ml and Mm00484742_ml respectively). Quantification was determined using the ΔΔCT method and normalized to the untreated sample.
In the case of “TGFβ1: transforming growth factor (TGF)-β1, anti-inflammatory cytokine used as antagonist of osteoblast differentiation”, the “Runx2 and Osx mRNA, basal levels” value is reported as “reduces basal levels”.

Same assay, conditions: factor alone
With “TGFβ1: transforming growth factor (TGF)-β1, anti-inflammatory cytokine used as antagonist of osteoblast differentiation” the Smad-7 levels was “no apparent affect”.

These compounds were tested on C2C12 cells (assay: High-throughput screen for small molecules that augment BMP-2 induced ALP expression (osteoblast conversion)). Conditions: DM + BMP-2 + compound at target concentration 1 μM, 72 h, duplicate; ImageJ, Digilab and visual inspection analyses.
Format: cell-based, mouse
Method: The level of alkaline phosphatase (ALP) activity measured colorimetrically was scored in all wells using three criteria (see Exemplary materials and methods in the Examples section). […] ALP intensity images were acquired using a Digilab Plate reader. Images were analyzed using three independent criteria and considered for secondary screening and validation in the MC3T3 pre-osteoblast cell line Enhancement of the mRNA and protein levels of the mature osteoblast markers RunX2 and osterix was tested. *Plates were run in duplicate.
C2C12 cells were plated at 750 cells per well in a 384-square well plate and were allowed to adhere for 24 h in growth media (GM). […] After 72 h, cells were fixed and stained for alkaline phosphatase (ALP) and DAPI for nuclei visualization. […] It was next sought to screen a larger set of small molecules from more diverse backgrounds to identify enhancement of osteoblast conversion.
Cell culture: C2C12. The C2C12 myoblast cell line (ATCC) was maintained in growth medium (GM) that consisted of high glucose DMEM (Gibco), 10% fetal bovine serum (Gibco), and 1% pen/strep (Invitrogen). […] Negative controls were switched to DM but only received 20 mM acetic acid. Cells were passaged approximately every two days and were kept below 70% con-fluency, as per manufacturer's instructions. MC3T3-E1. MC3T3-E1 subclone 4 pre-osteoblast cells (ATCC #CRL-2593) were maintained in minimum essential medium, alpha modification (Invitrogen #A10490-01) containing 10% FBS and 1% penicillin/streptomycin. […] All cell lines used were maintained in a 37° C. incubator at 5% CO2.
384-square well plates (BD) were used for primary screening. PBS was added to the outermost wells to reduce edge effects. In each plate, 40 wells were used as positive controls, 28 wells were used as negative controls, and the center 240 wells were used for compound testing. All plates were screened in duplicate. The inner 308 wells received 750 cells per well and were allowed to adhere in GM for 24 h. GM was then removed, wells were washed once with PBS, and DM was added to the inner 308 wells. Negative control wells received DM. […] DMSO was used as the vehicle for compound addition in this study. DMSO was also added to positive and negative control wells in equimolar amounts.
Cells were initially fixed with a fixative solution that consisted of a 3:10:26 ratio mixture of 37% formaldehyde: citrate: acetone. Colorimetric detection of osteoblasts was achieved using the alkaline phosphatase (ALP) kit obtained from Sigma-Aldrich (Catalog #86C). Cell number was determined based on nuclei staining with DAPI nucleic acid stain as per manufacturer's instructions (Invitrogen).
Well images identifying ALP+ cells were acquired using a MIAS-2 plate reader, as per manufacturer's instructions (Digilab, Holliston, Mass.).
Acquired images were assessed using three different search strategies (ImageJ software, Digilab software, and systematic scanning by eye); each having different sensitivities and specificities with regard to the assay.
Well images were opened with the image software platform ImageJ. Images were normalized on a per plate basis and, since ALP positive cells become darker in a gray scale image, the image darkness was assessed. Images were analyzed using an Area Fraction method whereby a minimum pixel darkness threshold was applied for all image wells. All pixels that were as dark or darker than the threshold applied were converted to black. […] The binary image was then assessed to see percentage of pixels of the image that were black (i.e. Area Fraction). Average Area Fraction from duplicate compound wells was divided by average duplicate nuclei count (as measured by DAPI count in ImageJ) to get Area Fraction on a per-cell basis. This ratio (Area Fraction: Nuclei count) was then compared to positive control wells.
Well images were analyzed using eaZYX Image Analyzer software (Digilab, Holliston, Mass.).
For `CCCCC[C@H](O)/C=C/[C@H]1[C@H](O)CC(=O)[C@@H]1CCCCCCC(=O)O` [prostaglandin E1], the “enhancement of BMP-2 induced ALP expression (screen hit)” value (from here on “enhancement”) was “identified in all three analyses; also recorded: enhanced ALP expression”. `O=C1NC(=O)C(c2ccccc2)(c2ccccc2)N1` [phenytoin] was tested, and the “enhancement” value was “identified in all three analyses”. With `C=C(c1ccc(C(=O)O)cc1)c1cc2c(cc1C)C(C)(C)CCC2(C)C` [bexarotene] the “enhancement” value was “identified in all three analyses”. For `Oc1ccc(C=Cc2cc(O)cc(O)c2)cc1` [resveratrol], the “enhancement” value was “notable hits among the top 45 compounds”. In the case of `CCCCC[C@H](O)CC[C@H]1[C@H](O)CC(=O)[C@@H]1CCCCCCC(=O)O` [13, 14-Dihydro-prostaglandin E1], the “enhancement” value is reported as “enhanced ALP expression”. For `CC1=C(/C=C/C(C)=C/C=C/C(C)=C\C(=O)O)C(C)(C)CCC1` [13-cis retinoic acid], the “enhancement” value was “identified in all three analyses”. In the case of `COc1c(C)c2c(c(O)c1C/C=C(\C)CCC(=O)O)C(=O)OC2` [mycophenolic acid], the “enhancement” value is reported as “identified in all three analyses”. With `CCCCC[C@H](O)/C=C/C1=C(C/C=C\CCCC(=O)O)C(=O)CC1` [prostaglandin B2] the “enhancement” value was “identified in all three analyses”. In the case of `CCCCC[C@H](O)/C=C/C1=C(CCCCCCC(=O)O)C(=O)CC1` [prostaglandin B1], the “enhancement” value is reported as “enhanced ALP expression”. For `COc1c(C)c2c(c(O)c1C/C=C(\C)CCC(=O)OCCN1CCOCC1)C(=O)OC2` [mycophenolate mofetil], the “enhancement” value was “identified in all three analyses”. With `C=C[C@H]1C[N@@]2CC[C@H]1C[C@H]2[C@H](O)c1ccnc2ccc(OC)cc12` [quinine] the “enhancement” value was “identified in all three analyses”. For `C/C(=C\c1ccc(C(=O)O)cc1)c1ccc2c(c1)C(C)(C)CCC2(C)C` [TTNPB], the “enhancement” value was “identified in all three analyses”. `COC(=O)C1=C(C)NC(C)=C(C(=O)OCCSc2ccccc2)C1C` (stereo not drawn) [PCA 4248] was tested, and the “enhancement” value was “identified in all three analyses”. With `CCCCC[C@H](O)/C=C/[C@H]1[C@H](O)CC(=O)[C@@H]1C/C=C\CCCC(=O)O` [prostaglandin E2] the “enhancement” value was “enhanced ALP expression”. `CC[C@@H]1/C=C(\C)C[C@H](C)C[C@H](OC)[C@H]2O[C@@](O)(C(=O)C(=O)N3CCCC[C@H]3C(=O)O[C@H](/C(C)=C/[C@@H]3CC[C@@H](O)[C@H](OC)C3)[C@H](C)[C@@H](O)CC1=O)[C@H](C)C[C@@H]2OC` [FK-520] was tested, and the “enhancement” value was “also identified but was not among the top hits”. With `CCCCCCCCCCCCCCC[C@@H](O)[C@H](CO)NC(C)=O` [C2 dihydroceramide] the “enhancement” value was “identified in all three analyses”.
